Data from PubChem BioAssay AID330 (DTP/NCI, 2004).
Several values for one entry are separate records, joined by “and”; a condition that tells them apart may be missing. Equal values may be shown once. Toxic doses and inconclusive results are not listed. Rule for the calls: active = survival T/C of 150% or more; inactive = T/C below 125% in these data.

Test system: P388 leukemia ip, CD2F1 mice, survival T/C
Assay: NCI In Vivo Anticancer Drug Screen. Data for tumor model P388 Leukemia (intraperitoneal) in CD2F1 (CDF1) mice
Conditions: endpoint: median survival time, higher = longer survival
In short: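 Mice carrying the transplanted tumor received test compound or vehicle. Survival was recorded in each group, and the value is the treated-group measurement divided by that of the vehicle-treated control group.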

[1] = dose: 50.0 mg/kg/injection, schedule: Q01DX009 (ip), vehicle: saline sonified
[2] = dose: 12.5 mg/kg/injection, schedule: Q01DX009 (ip), vehicle: Klucel (hydroxypropylcellulose) (HPC)
[3] = dose: 25.0 mg/kg/injection, schedule: Q01DX009 (ip), vehicle: Klucel (hydroxypropylcellulose) (HPC)
[4] = dose: 50.0 mg/kg/injection, schedule: Q01DX009 (ip), vehicle: Klucel (hydroxypropylcellulose) (HPC)

Measured: T/C

Nc1ncnc2c1ncn2C1OC(CO)C(O)C1O (stereo not drawn)
inactive: dose: 1.25 mg/kg/injection, schedule: Q03HX016 (ip), vehicle: saline 113 % of control | dose: 1.56 mg/kg/injection, schedule: Q01DX009 (ip), vehicle: saline 116 % of control | dose: 2.5 mg/kg/injection, schedule: Q03HX016 (ip), vehicle: saline 122 % of control | dose: 3.12 mg/kg/injection, schedule: Q01DX009 (ip), vehicle: saline 122 % of control | dose: 6.25 mg/kg/injection, schedule: Q01DX009 (ip), vehicle: saline 119 % of control and 104 % of control | dose: 9.0 mg/kg/injection, schedule: Q01DX009 (ip), vehicle: saline with Tween-80 114 % of control | dose: 12.5 mg/kg/injection, schedule: Q01DX009 (ip), vehicle: saline with Tween-80 118 % of control | dose: 12.5 mg/kg/injection, schedule: Q01DX009 (ip), vehicle: saline 103 % of control | dose: 12.5 mg/kg/injection, schedule: Q03HX016 (ip), vehicle: Klucel (hydroxypropylcellulose) (HPC) 110 % of control | dose: 14.0 mg/kg/injection, schedule: Q01DX009 (ip), vehicle: saline with Tween-80 120 % of control | dose: 20.0 mg/kg/injection, schedule: Q01DX009 (ip), vehicle: saline 103 % of control | dose: 20.0 mg/kg/injection, schedule: Q03HX016 (ip), vehicle: saline 122 % of control | dose: 25.0 mg/kg/injection, schedule: Q01DX009 (ip), vehicle: saline 103 % of control | dose: 25.0 mg/kg/injection, schedule: Q03HX016 (ip), vehicle: Klucel (hydroxypropylcellulose) (HPC) 120 % of control | dose: 25.0 mg/kg/injection, schedule: Q04DX003 (ip), vehicle: Klucel (hydroxypropylcellulose) (HPC) 105 % of control | dose: 25.0 mg/kg/injection, schedule: Q04DX003 (ip), vehicle: saline sonified 118 % of control | dose: 32.0 mg/kg/injection, schedule: Q01DX009 (ip), vehicle: Klucel (hydroxypropylcellulose) (HPC) 100 % of control and 102 % of control | dose: 40.0 mg/kg/injection, schedule: Q01DX009 (ip), vehicle: saline 115 % of control and 118 % of control | [1] 123 % of control | dose: 50.0 mg/kg/injection, schedule: Q01DX009 (ip), vehicle: saline 99 % of control | dose: 50.0 mg/kg/injection, schedule: Q04DX003 (ip), vehicle: Klucel (hydroxypropylcellulose) (HPC) 97 % of control | dose: 50.0 mg/kg/injection, schedule: Q04DX003 (ip), vehicle: saline sonified 122 % of control | dose: 64.0 mg/kg/injection, schedule: Q01DX009 (ip), vehicle: Klucel (hydroxypropylcellulose) (HPC) 102 % of control and 97 % of control | dose: 75.0 mg/kg/injection, schedule: Q01DX009 (ip), vehicle: saline sonified 95 % of control | dose: 75.0 mg/kg/injection, schedule: Q01DX009 (ip), vehicle: saline with Tween-80 72 % of control | dose: 78.6 mg/kg/injection, schedule: Q01DX005 (ip), vehicle: water 106 % of control | dose: 78.6 mg/kg/injection, schedule: Q01DX009 (ip), vehicle: water 100 % of control | dose: 80.0 mg/kg/injection, schedule: Q01DX009 (ip), vehicle: saline 122 % of control | dose: 100.0 mg/kg/injection, schedule: Q01DX009 (ip), vehicle: saline 122 % of control and 73 % of control | dose: 100.0 mg/kg/injection, schedule: Q04DX003 (ip), vehicle: Klucel (hydroxypropylcellulose) (HPC) 96 % of control | dose: 100.0 mg/kg/injection, schedule: Q04DX003 (ip), vehicle: saline sonified 110 % of control | dose: 118.0 mg/kg/injection, schedule: Q01DX005 (ip), vehicle: water 99 % of control | dose: 118.0 mg/kg/injection, schedule: Q01DX009 (ip), vehicle: water 99 % of control | dose: 128.0 mg/kg/injection, schedule: Q01DX009 (ip), vehicle: Klucel (hydroxypropylcellulose) (HPC) 101 % of control and 93 % of control | dose: 177.0 mg/kg/injection, schedule: Q01DX005 (ip), vehicle: water 99 % of control | dose: 177.0 mg/kg/injection, schedule: Q01DX009 (ip), vehicle: water 111 % of control | dose: 200.0 mg/kg/injection, schedule: Q01DX009 (ip), vehicle: saline with Tween-80 115 % of control | dose: 200.0 mg/kg/injection, schedule: Q04DX003 (ip), vehicle: Klucel (hydroxypropylcellulose) (HPC) 98 % of control | dose: 200.0 mg/kg/injection, schedule: Q04DX003 (ip), vehicle: saline sonified 110 % of control | dose: 256.0 mg/kg/injection, schedule: Q01DX009 (ip), vehicle: Klucel (hydroxypropylcellulose) (HPC) 99 % of control and 88 % of control | dose: 264.0 mg/kg/injection, schedule: Q04DX003 (ip), vehicle: saline with Tween-80 121 % of control | dose: 266.0 mg/kg/injection, schedule: Q01DX005 (ip), vehicle: water 115 % of control | dose: 266.0 mg/kg/injection, schedule: Q01DX009 (ip), vehicle: saline with Tween-80 121 % of control | dose: 266.0 mg/kg/injection, schedule: Q01DX009 (ip), vehicle: water 113 % of control | dose: 400.0 mg/kg/injection, schedule: Q01DX005 (ip), vehicle: water 108 % of control | dose: 400.0 mg/kg/injection, schedule: Q01DX009 (ip), vehicle: saline with Tween-80 121 % of control | dose: 400.0 mg/kg/injection, schedule: Q01DX009 (ip), vehicle: saline 122 % of control | dose: 400.0 mg/kg/injection, schedule: Q01DX009 (ip), vehicle: water 117 % of control | dose: 400.0 mg/kg/injection, schedule: Q04DX003 (ip), vehicle: saline with Tween-80 117 % of control | dose: 512.0 mg/kg/injection, schedule: Q01DX009 (ip), vehicle: Klucel (hydroxypropylcellulose) (HPC) 101 % of control and 91 % of control | dose: 600.0 mg/kg/injection, schedule: Q01DX009 (ip), vehicle: saline sonified 86 % of control | dose: 600.0 mg/kg/injection, schedule: Q01DX009 (ip), vehicle: saline with Tween-80 111 % of control | dose: 900.0 mg/kg/injection, schedule: Q01DX009 (ip), vehicle: saline with Tween-80 94 % of control | dose: 1000.0 mg/kg/injection, schedule: Q01DX009 (oral), vehicle: saline with Tween-80 101 % of control | dose: 1.3 micrograms/kg/injection, schedule: Q#A X Z (ip), vehicle: water 91 % of control | dose: 1500.0 mg/kg/injection, schedule: Q01DX009 (oral), vehicle: saline with Tween-80 104 % of control | dose: 2000.0 mg/kg/injection, schedule: Q01DX009 (oral), vehicle: saline with Tween-80 100 % of control | dose: 13.4 micrograms/kg/injection, schedule: Q#A X Z (ip), vehicle: water 98 % of control | dose: 134.0 micrograms/kg/injection, schedule: Q#A X Z (ip), vehicle: water 98 % of control | dose: 1340.0 micrograms/kg/injection, schedule: Q#A X Z (ip), vehicle: water 100 % of control
active: dose: 200.0 mg/kg/injection, schedule: Q03HX016 (ip), vehicle: Klucel (hydroxypropylcellulose) (HPC) 154 % of control | dose: 400.0 mg/kg/injection, schedule: Q03HX016 (ip), vehicle: Klucel (hydroxypropylcellulose) (HPC) 183 % of control

CCOC(=O)c1cnc(Sc2c([N+](=O)[O-])ncn2C)nc1N
inactive: [2] 89 % of control | [3] 92 % of control | [4] 86 % of control and 91 % of control

Brc1nc(Br)c(Br)[nH]1
inactive: [1] 91 % of control

CC1=C2CC(=O)OC(c3ccoc3)C2(C)CCC1C1(CC(=O)O)C2COC(=O)CC2OC1(C)C (stereo not drawn)
inactive: dose: 0.75 mg/kg/injection, schedule: Q01DX009 (ip), vehicle: saline + alcohol 99 % of control | dose: 1.5 mg/kg/injection, schedule: Q01DX009 (ip), vehicle: saline + alcohol 97 % of control | dose: 3.0 mg/kg/injection, schedule: Q01DX009 (ip), vehicle: saline + alcohol 106 % of control | dose: 6.0 mg/kg/injection, schedule: Q01DX009 (ip), vehicle: saline + alcohol 101 % of control

COc1ccc(C2CC(=O)NC2=O)cc1OC (stereo not drawn)
inactive: dose: 60.0 mg/kg/injection, schedule: Q01DX005 (ip), vehicle: saline with Tween-80 96 % of control | dose: 120.0 mg/kg/injection, schedule: Q01DX005 (ip), vehicle: saline with Tween-80 92 % of control | dose: 240.0 mg/kg/injection, schedule: Q01DX005 (ip), vehicle: saline with Tween-80 97 % of control

Cc1ccc(S(=O)(=O)N/N=C(\C(=O)O)c2ccccc2)cc1
inactive: [2] 102 % of control | [3] 97 % of control | [4] 96 % of control | dose: 100.0 mg/kg/injection, schedule: Q01DX009 (ip), vehicle: Klucel (hydroxypropylcellulose) (HPC) 94 % of control | dose: 200.0 mg/kg/injection, schedule: Q01DX009 (ip), vehicle: Klucel (hydroxypropylcellulose) (HPC) 93 % of control
